In patent US7994156B2 (priority 2007, dated 2011) one finds IC50 data, which are given here for one compound.

As a reminder, the IC50 is the concentration that gives 50% inhibition.

Assay [1] concerns the target T1, serotonine (5-HT) reuptake in synaptosomes (Rattus norvegicus, UniProt P31652).
T1 construct: serotonine (5-HT) in synaptosomes as described in WO 97/16451; from tissue
Nature of the assay: Inhibition of 5-HT reuptake in synaptosomes. As to conditions: 3H-5-HT, read-out: 5-HT-uptake IC50. It is filed as biochemical. On the procedure: (§1) A compound of the invention was tested for its ability to inhibit the reuptake of the monoamine neurotransmitters dopamine (DA) noradrenaline (NA) and serotonine (5-HT) in synaptosomes as described in WO 97/16451.
(§2) The test values are given as IC50 (the concentration (μM) of the test substance which inhibits the specific binding of ^3H-DA, ^3H-NA, or ^3H-5-HT by 50%).

Assay [2] has as its target T2, α7-subtype of nicotinic receptors (Rattus norvegicus, UniProt Q05941).
T2 construct: Cerebral cortices from male Wistar rats (150-250 g) are homogenised; from tissue; host or cells: cerebral cortex of male Wistar rats, washed membrane pellet
Nature of the assay: biochemical. It is filed as binding.

Assay [3] has as its target T3, dopamine (DA) reuptake in synaptosomes (Rattus norvegicus, UniProt P23977).
T3 construct: in synaptosomes as described in WO 97/16451; from tissue
The assay can be described thus: Inhibition of DA reuptake in synaptosomes. Type of assay: biochemical. As to conditions: 3H-DA, read-out: DA-uptake IC50. As for the experimental part: as §1, §2

T3 sequence (P23977 whole entry): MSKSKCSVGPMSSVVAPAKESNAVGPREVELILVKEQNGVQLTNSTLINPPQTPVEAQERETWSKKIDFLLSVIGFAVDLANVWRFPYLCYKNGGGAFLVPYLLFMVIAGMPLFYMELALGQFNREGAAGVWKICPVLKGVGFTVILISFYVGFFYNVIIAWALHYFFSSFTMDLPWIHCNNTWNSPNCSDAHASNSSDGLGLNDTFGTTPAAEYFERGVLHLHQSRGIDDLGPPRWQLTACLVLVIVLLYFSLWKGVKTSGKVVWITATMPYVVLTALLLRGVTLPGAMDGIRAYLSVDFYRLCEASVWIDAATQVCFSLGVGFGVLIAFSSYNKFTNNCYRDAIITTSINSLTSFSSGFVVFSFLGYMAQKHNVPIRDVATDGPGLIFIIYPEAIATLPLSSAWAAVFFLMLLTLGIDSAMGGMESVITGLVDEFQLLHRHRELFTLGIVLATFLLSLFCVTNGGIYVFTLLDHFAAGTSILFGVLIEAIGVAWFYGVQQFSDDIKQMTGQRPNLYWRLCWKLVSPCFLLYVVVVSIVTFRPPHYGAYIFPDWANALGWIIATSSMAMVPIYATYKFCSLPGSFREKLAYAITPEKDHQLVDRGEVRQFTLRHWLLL
T2 sequence (Q05941 23-502): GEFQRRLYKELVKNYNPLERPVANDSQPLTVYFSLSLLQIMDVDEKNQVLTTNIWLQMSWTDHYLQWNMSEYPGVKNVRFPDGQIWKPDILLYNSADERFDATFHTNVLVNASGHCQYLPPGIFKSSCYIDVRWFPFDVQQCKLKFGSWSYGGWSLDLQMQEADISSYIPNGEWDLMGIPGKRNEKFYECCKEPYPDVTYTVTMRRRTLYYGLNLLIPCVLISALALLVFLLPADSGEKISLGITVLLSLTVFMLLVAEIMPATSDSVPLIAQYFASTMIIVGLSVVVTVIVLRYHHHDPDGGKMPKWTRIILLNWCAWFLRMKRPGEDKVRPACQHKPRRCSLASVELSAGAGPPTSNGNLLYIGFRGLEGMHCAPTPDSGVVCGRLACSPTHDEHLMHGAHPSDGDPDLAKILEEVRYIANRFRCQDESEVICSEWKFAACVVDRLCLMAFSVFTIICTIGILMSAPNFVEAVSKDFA
T1 sequence (P31652 whole entry): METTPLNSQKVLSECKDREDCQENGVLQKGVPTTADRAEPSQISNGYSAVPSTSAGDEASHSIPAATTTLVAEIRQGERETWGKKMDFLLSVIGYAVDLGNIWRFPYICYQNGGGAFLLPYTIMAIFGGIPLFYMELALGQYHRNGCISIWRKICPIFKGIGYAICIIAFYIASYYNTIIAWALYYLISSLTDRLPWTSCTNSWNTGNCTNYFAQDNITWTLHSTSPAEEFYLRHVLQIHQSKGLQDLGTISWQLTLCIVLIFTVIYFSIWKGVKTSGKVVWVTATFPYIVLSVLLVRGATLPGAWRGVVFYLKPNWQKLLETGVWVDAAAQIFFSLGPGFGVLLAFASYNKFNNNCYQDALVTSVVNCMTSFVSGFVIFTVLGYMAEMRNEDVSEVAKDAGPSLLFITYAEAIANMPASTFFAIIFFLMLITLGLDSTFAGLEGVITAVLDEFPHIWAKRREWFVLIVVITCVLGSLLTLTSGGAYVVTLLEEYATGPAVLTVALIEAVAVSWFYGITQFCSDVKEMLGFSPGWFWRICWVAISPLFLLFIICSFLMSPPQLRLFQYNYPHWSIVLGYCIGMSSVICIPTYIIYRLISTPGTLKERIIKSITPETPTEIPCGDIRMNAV

On to `O=C(Oc1ccc(N=Nc2ccccc2)cc1)N1CCN2CCC1CC2` [1,4-Diaza-bicyclo[3.2.2]nonane-4-carboxylic acid 4-phenylazo-phenyl ester], for which the values for the IC50 in assay [1], in assay [2] and in assay [3] were 13 µM, 1600 nM and 32 nM, respectively.
